The structures appear in SMILES notation. Where a name gives a salt, the structure may show the parent alone.

The target in the assay is T1, human TRPC6 (Homo sapiens, UniProt Q9Y210).
T1 construct: expressed in transfected cells
T1 sequence (Q9Y210 1-931): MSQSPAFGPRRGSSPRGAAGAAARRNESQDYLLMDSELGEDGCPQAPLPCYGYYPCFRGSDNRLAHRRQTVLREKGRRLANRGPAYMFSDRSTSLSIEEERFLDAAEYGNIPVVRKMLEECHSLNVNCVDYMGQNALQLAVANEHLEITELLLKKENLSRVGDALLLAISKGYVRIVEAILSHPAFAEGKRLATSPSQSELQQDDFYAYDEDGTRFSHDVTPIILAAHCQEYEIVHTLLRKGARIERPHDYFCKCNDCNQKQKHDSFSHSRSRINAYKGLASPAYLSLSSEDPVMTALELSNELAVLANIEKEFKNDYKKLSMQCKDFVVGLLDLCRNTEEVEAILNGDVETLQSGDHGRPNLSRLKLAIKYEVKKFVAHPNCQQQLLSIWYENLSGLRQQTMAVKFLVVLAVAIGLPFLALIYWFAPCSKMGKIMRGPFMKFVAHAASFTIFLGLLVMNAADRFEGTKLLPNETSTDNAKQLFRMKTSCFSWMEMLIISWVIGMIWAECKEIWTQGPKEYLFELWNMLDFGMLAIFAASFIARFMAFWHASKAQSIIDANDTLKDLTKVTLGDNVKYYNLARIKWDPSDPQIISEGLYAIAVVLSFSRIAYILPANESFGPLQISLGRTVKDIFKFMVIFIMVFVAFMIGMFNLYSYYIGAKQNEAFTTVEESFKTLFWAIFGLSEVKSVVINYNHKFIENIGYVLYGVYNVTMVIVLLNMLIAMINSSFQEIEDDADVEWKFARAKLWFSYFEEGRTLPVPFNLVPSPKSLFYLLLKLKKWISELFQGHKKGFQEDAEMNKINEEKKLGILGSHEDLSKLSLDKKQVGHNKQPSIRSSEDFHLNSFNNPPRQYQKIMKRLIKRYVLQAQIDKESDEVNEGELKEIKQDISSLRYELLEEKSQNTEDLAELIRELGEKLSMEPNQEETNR
In words: TRPC6 calcium flux assay (FLIPR, OAG-stimulated calcium influx). The following applies: HEK293 cells stably transfected with human TRPC6, read-out: hTRPC6 Potency. The format is cell-based. Summed up:
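IC50 derived by plotting background-corrected peak fluorescence (180 s window, normalized to OAG-triggered signal vs buffer) against dose. Stable human TRPC6 HEK293 line was dye-loaded, exposed to compound 25 min, then challenged with 50 uM final OAG in 2 mM Ca2+ HEPES buffer pH 7.2, 0.5% DMSO.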
(In general: Calcium assays in cells follow changes in intracellular calcium, usually with a dye or a luminescent sensor.)
Consider `CC(C)(C)NC(=O)c1ccc(Cn2c(N3CC[C@@H](F)[C@H](N)C3)nc3ncc(Cl)cc32)nc1` [Example 94, 6-((2-((3R,4R)-3-amino-4-fluoropiperidin-1-yl)-6-chloro-1H-imidazo[4,5-b]pyridin-1-yl)methyl)-N-(tert-butyl)nicotinamide], for which the IC50 stood at 0.615 µM.

Take `N#Cc1ccc(Cn2c(N3CC[C@@H](O)[C@H](N)C3)nc3ccccc32)nc1` [Example 95, 6-((2-((3R,4R)-3-amino-4-hydroxypiperidin-1-yl)-1H-benzo[d]imidazol-1-yl)methyl)nicotinonitrile]: the IC50 is above 3.75 µM.

Take `N#Cc1ccc(Cn2c(N3CC[C@H](O)[C@@H](N)C3)nc3ccccc32)nc1` [Example 96, 6-((2-((3S,4S)-3-amino-4-hydroxypiperidin-1-yl)-1H-benzo[d]imidazol-1-yl)methyl)nicotinonitrile]: the IC50 was 0.134 µM.

Regarding `N#Cc1ccc(Cn2c(N3CCC4(CNC4)C3)nc3ccccc32)nc1` [Example 97, 6-((2-(2,6-diazaspiro[3.4]octan-6-yl)-1H-benzo[d]imidazol-1-yl)methyl)nicotinonitrile], the IC50 was above 3.75 µM.

As for `N#Cc1ccc(Cn2c(N3C[C@@H]4OCCN[C@@H]4C3)nc3ccccc32)nc1` [Example 98, 6-((2-((4aR,7aS)-hexahydropyrrolo[3,4-b][1,4]oxazin-6(2H)-yl)-1H-benzo[d]imidazol-1-yl)methyl)nicotinonitrile hydrochloride], the IC50 was above 3.75 µM.

On to `N#Cc1ccc(Cn2c(N3C[C@@H]4NCCO[C@@H]4C3)nc3ccccc32)nc1` [Example 99, 6-((2-((4aS,7aR)-hexahydropyrrolo[3,4-b][1,4]oxazin-6(2H)-yl)-1H-benzo[d]imidazol-1-yl)methyl)nicotinonitrile hydrochloride], for which the IC50 was above 3.75 µM.

Regarding `N#Cc1ccc(Cn2c(N3C[C@H]4NCCO[C@@H]4C3)nc3ccccc32)nc1` [Example 100, 6-((2-((4aR,7aR)-hexahydropyrrolo[3,4-b][1,4]oxazin-6(2H)-yl)-1H-benzo[d]imidazol-1-yl)methyl)nicotinonitrile], the IC50 was 0.06 µM.

With `N#Cc1ccc(Cn2c(N3C[C@@H]4NCCO[C@H]4C3)nc3ccccc32)nc1` [Example 101, 6-((2-((4aS,7aS)-hexahydropyrrolo[3,4-b][1,4]oxazin-6(2H)-yl)-1H-benzo[d]imidazol-1-yl)methyl)nicotinonitrile], the IC50 is above 3.75 µM.

As for `N#Cc1ccc(Cn2c(N3CCC[C@@](N)(C(N)=O)C3)nc3ccccc32)nc1` [Example 102, (S)-3-amino-1-(1-((5-cyanopyridin-2-yl)methyl)-1H-benzo[d]imidazol-2-yl)piperidine-3-carboxamide], the IC50 was above 3.75 µM.

Take `N#Cc1ccc(Cn2c(N3CCC[C@](N)(C(N)=O)C3)nc3ccccc32)nc1` [Example 103, (R)-3-amino-1-(1-((5-cyanopyridin-2-yl)methyl)-1H-benzo[d]imidazol-2-yl)piperidine-3-carboxamide]: the IC50 was above 3.75 µM.

Take `N#Cc1ccc(Cn2c(N3CCC[C@@](N)(CO)C3)nc3ccccc32)nc1` [Example 104, (S)-6-((2-(3-amino-3-(hydroxymethyl)piperidin-1-yl)-1H-benzo[d]imidazol-1-yl)methyl)nicotinonitrile]: the IC50 stood at 0.0618 µM.

On to `N#Cc1ccc(Cn2c(N3CCC[C@](N)(CO)C3)nc3ccccc32)nc1` [Example 105, (R)-6-((2-(3-amino-3-(hydroxymethyl)piperidin-1-yl)-1H-benzo[d]imidazol-1-yl)methyl)nicotinonitrile], for which the IC50 was 2.48 µM.

Take `N#Cc1ccc(Cn2c(N3CC[C@H](F)[C@H](N)C3)nc3ccc(C(F)(F)F)cc32)nc1` [Example 106, 6-((2-((3R,4S)-3-amino-4-fluoro-1-piperidinyl)-6-(trifluoromethyl)-1H-benzimidazol-1-yl)methyl)-3-pyridinecarbonitrile]: the IC50 came out at 0.00045 µM.

Consider `N#Cc1ccc(Cn2c(N3CC[C@H](F)[C@H](N)C3)nc3cc(C(F)(F)F)ccc32)nc1` [Example 107, 6-((2-((3R,4S)-3-amino-4-fluoro-1-piperidinyl)-5-(trifluoromethyl)-1H-benzimidazol-1-yl)methyl)-3-pyridinecarbonitrile], for which the IC50 was found to be 0.00788 µM.

Take `N#Cc1ccc(Cn2c(N3CCC(F)(F)[C@H](N)C3)nc3ccc(C(F)(F)F)cc32)nc1` [Example 108, 6-((2-((3R)-3-amino-4,4-difluoro-1-piperidinyl)-6-(trifluoromethyl)-1H-benzimidazol-1-yl)methyl)-3-pyridinecarbonitrile]: the IC50 came to 0.000433 µM.

As for `N#Cc1ccc(Cn2c(N3CCC(F)(F)[C@H](N)C3)nc3cc(C(F)(F)F)ccc32)nc1` [Example 109, 6-((2-((3R)-3-amino-4,4-difluoro-1-piperidinyl)-5-(trifluoromethyl)-1H-benzimidazol-1-yl)methyl)-3-pyridinecarbonitrile], the IC50 is 0.0438 µM.

With `Cc1ccc2c(c1)nc(N1CC[C@@H](F)[C@H](N)C1)n2Cc1ccc(C#N)cn1` [Example 110, 6-((2-((3R,4R)-3-amino-4-fluoro-1-piperidinyl)-5-methyl-1H-benzimidazol-1-yl)methyl)-3-pyridinecarbonitrile], the IC50 is 0.00123 µM.

In the case of `Cc1ccc2nc(N3CC[C@@H](F)[C@H](N)C3)n(Cc3ccc(C#N)cn3)c2c1` [Example 111, 6-((2-((3R,4R)-3-amino-4-fluoro-1-piperidinyl)-6-methyl-1H-benzimidazol-1-yl)methyl)-3-pyridinecarbonitrile], the IC50 was found to be 0.000788 µM.

Consider `Cc1cc2nc(N3CC[C@@H](F)[C@H](N)C3)n(Cc3ccc(C#N)cn3)c2cc1Cl` [Example 112, 6-((2-((3R,4R)-3-amino-4-fluoro-1-piperidinyl)-6-chloro-5-methyl-1H-benzimidazol-1-yl)methyl)-3-pyridinecarbonitrile], for which the IC50 stood at 0.000281 µM.

For `Cc1cc2c(cc1Cl)nc(N1CC[C@@H](F)[C@H](N)C1)n2Cc1ccc(C#N)cn1` [Example 113, 6-((2-((3R,4R)-3-amino-4-fluoro-1-piperidinyl)-5-chloro-6-methyl-1H-benzimidazol-1-yl)methyl)-3-pyridinecarbonitrile], the IC50 worked out at 0.000286 µM.

`Cc1cc2nc(N3CC[C@@H](F)[C@H](N)C3)n(Cc3ccc(C#N)cn3)c2cc1F` [Example 114, 6-((2-((3R,4R)-3-amino-4-fluoro-1-piperidinyl)-6-fluoro-5-methyl-1H-benzimidazol-1-yl)methyl)-3-pyridinecarbonitrile]: the IC50 was 0.000382 µM.

Turning to `Cc1cc2c(cc1F)nc(N1CC[C@@H](F)[C@H](N)C1)n2Cc1ccc(C#N)cn1` [Example 115, 6-((2-((3R,4R)-3-amino-4-fluoro-1-piperidinyl)-5-fluoro-6-methyl-1H-benzimidazol-1-yl)methyl)-3-pyridinecarbonitrile], the IC50 turned out to be 0.000446 µM.

As to `CN[C@H]1CCCN(c2nc3ccccc3n2Cc2ccc(C#N)cn2)C1` [Example 116, 6-((2-((3S)-3-(methylamino)-1-piperidinyl)-1H-benzimidazol-1-yl)methyl)-3-pyridinecarbonitrile], the IC50 stood at 0.00779 µM.

With `CN[C@@H]1CCCN(c2nc3ccccc3n2Cc2ccc(C#N)cn2)C1` [Example 117, 6-((2-((3R)-3-(methylamino)-1-piperidinyl)-1H-benzimidazol-1-yl)methyl)-3-pyridinecarbonitrile], the IC50 is above 3.75 µM.

The values are drawn from patent publication US11332459B2 (TEIJIN PHARMA LIMITED, priority 2017, dated 2022).
